Where “and” joins values, the source holds several entries; their conditions need not be identical. Identical values can stand only once.
Experiments:
YAP/TEAD = conditions: literature; cited from earlier work
TEAD [1] = conditions: literature; cited from earlier work
TEADs = test: TEAD-specific 8×GTIIC-luciferase reporter assay; format: cell-based; conditions: for inhibition at 10 µM: 8×GTIIC-luciferase, read-out: Luciferase reporter assay inhibitory rate; for IC50: dose response, read-out: TEADs transcription inhibition IC50, luciferase reporter assay
Method: A series of compounds featuring a chloromethyl ketone moiety were synthesized (Schemes 1-4). The inhibitory rate of this series of compounds was tested using 8×GTIIC-luciferase reporter assay at 10 μM.
Next, the inhibition of TEAD transcription activity of compounds was tested varying the dosage using the 8×GTIIC-luciferase reporter assay. […] The aim was to determine whether its inhibition of TEAD transcription can lead to downregulation of the YAP-TEAD target genes. CTGF is one of the best characterized (bona fide) target gene of YAP and TAZ.
To further investigate the mechanism of the inhibitory effect of compounds in Huh7 cells, TEADs specific luciferase reporter assays were performed with compounds 22 and 12 at several concentrations. […] TEAD downstream gene expression patterns were evaluated in liver cancer cells Huh7, which has been evidenced with relative high expression of YAP and TEAD2.
HEK 293T cells were plated at 2×10^4 cells/well in a 96 well microplate and were transfected with 50 ng of 8×GTIIC-luciferase plasmid (Addgene #34615) and 0.5 ng of pRL-CMV (Promega #E226A) by using lipofectamine 3000 (Life Technologies #L3000). The 8×GTIIc-luciferase reporter is a Yap/Taz-activity reporter containing eight TEAD consensus binding sequences. After 6 h, transfected cells were treated with various concentrations of compounds or DMSO control. Luciferase signals were measured using the Dual Luciferase Reporter Assay System (Promega, E1960) according to the manufacturer's instructions. Experiments were performed in triplicate and repeated at least three times.

Huh7 cells = test: Huh7 cell proliferation assay (CCK8); format: cell-based, human; conditions: Homo sapiens, Huh-7, 72 h; 3 days; CCK8; mean ± SD of three independent experiments; read-out: Cell proliferation assay IC50, Huh7
Method: CCK8 assay kit was used to determine antiproliferative activity of synthesized compounds against Huh7 cell line. First, Huh7 cells were seeded into 96-well plates at a density of 3000 cells/well and incubated overnight. Cells were then co-incubated with compounds at 8 concentrations for 72 h. Then, the cell proliferation was determined by the CCK8 kit according to the standard protocol. Experiments were performed in triplicate.

[2] = AML12 normal liver cell growth inhibition (CCK8); format: cell-based; conditions: mouse, aml12 cells
AML12 cells = test: AML12 normal liver cell growth inhibition (CCK8); format: cell-based; conditions: for Inhibitory rate, AML12 (inhibitory percentage of AML12 cell growth): 10 μM, 3 days
CTGF [3] = test: CTGF mRNA expression by RT-qPCR in Huh7 cells; format: cell-based, human; conditions: dose-dependent
Method: Huh7 and HepG2 liver cancer cells were seeded at 1×10^6 cells/dish and allowed to adhere overnight. The cells were then treated with indicated doses of compounds in medium for 24 hours. The cells were then harvested, and total RNA was purified using the Aurum total RNA mini kit (Bio-Rad #732-6820) according to the manufacturer's instructions. Complementary DNA was synthesized from 500 ng total RNA template by iScript reverse transcription kit (Bio-Rad #1725037) according to the manufacturer's instructions. Real-time PCR reactions utilized 60 ng cDNA and PrimePCR primers from Bio-Rad (Unique Assay ID: human GAPDH-qHsaCEP0041396, human CTGF-qHsaCEP0024255, human CYR61-qHsaCEP0024230) designed for SYBR Green gene expression analysis (Bio-Rad #1726270). All reactions were carried out in triplicate using Quant Studio 3 PCR system (Applied Biosystems). Relative gene expression level was quantified via ΔΔCt method by using GAPDH as an endogenous reference.

CTGF [4] = test: CTGF protein expression by western blotting in Huh7 cells; format: cell-based, human; conditions: dose-dependent
Method: Treated Huh7 cells were harvested and lysed in cold RIPA lysis buffer containing […] and phosphatase inhibitors. The protein concentrations were determined using the BCA Protein Assay kit. The prepared protein samples were loaded on and separated by 10% SDS-PAGE gel and then were transferred to PVDF membrane. Blots were blocked for 1 h at RT in blocking buffer and incubated with corresponding primary antibodies: anti-CTGF (ab227180), and anti-GAPDH (ab9485), at 4 ° C overnight. Then the blots were incubated with HRP-conjugated anti-rabbit secondary antibody in blocking buffer for 1.5 h at RT. The membranes were imaged with ChemiDoc MP imaging system.

TEAD [5] = test: Fluorescence polarization assay; format: binding; conditions: FIG. 1D
Text: FIGS. 1A-1D depict discovery of C-3 as moderate TEAD transcription inhibitor. (FIG. 1A) The flowchart of the docking-based virtual screening campaign. (FIG. 1B) Predicted binding mode of C-3 in TEAD2 lipid binding pocket.

YAP [6] = conditions: literature; cited from earlier work
YAP-TEAD = conditions: all four TEAD family members; cited from earlier work
YAP [7] = conditions: literature; cited from earlier work; remark: listed apart in the source

SMILES | inhibition at 10 µM (TEADs) [%] | IC50 (TEADs) | IC50 (Huh7 cells) [µM] | Inhibitory rate, AML12 (inhibitory percentage of AML12 cell growth) (AML12 cells) [%] | CTGF mRNA expression, Huh7 (CTGF [3]) | CTGF protein expression, Huh7 (CTGF [4]) | other results
Cc1ccc2c(c1)c1c3n2CCNC3CCC1 (stereo not shown) [CPD3.1] | – | – | – | – | – | – | YAP/TEAD interaction, co-IP (YAP/TEAD): disrupt YAP/TEAD interaction; TEAD reporter activity (TEAD [1]): inhibits TEAD reporter activity
O=C(CCl)c1c[nH]c2cc(Cl)c(OCc3ccc4ccccc4c3)cc12 [Compound 2, 2-chloro-1-(6-chloro-5-(naphthalen-2-ylmethoxy)-1H-indol-3-yl)ethan-1-one] | 95.6 | 0.89 µM and 0.87 µM | 2.3 ± 0.6 | 32.1 | significantly decreased | dose-dependent decrease | TEAD transcription inhibition, luciferase reporter (TEADs; varying dosage, FIGS. 3A-3B): potent inhibition activity; inhibition at 10 µM ([2]; "at 10 M", read-out: Inhibitory rate of AML cells): 32%; Toxicity towards normal liver cell line AML12 (AML12 cells): least toxic of the covalent compounds
O=C(CCl)NCc1c[nH]c2cc(Cl)c(OCc3ccccc3)cc12 [Compound 12, N-((5-(benzyloxy)-6-chloro-1H-indol-3-yl)methyl)-2-chloroacetamide] | 97.8 | 0.629 µM | 1.2 ± 0.3 | 34.2 | suppressed | suppression of CTGF protein production | –
Clc1cc2[nH]ccc2cc1OCc1ccccc1 [Compound C-3] | 68.3 | 5 µM | 32.5 | – | – | – | inhibition at 72 h, 10 µM ([2]; 10 μM, 3 days, read-out: Inhibitory rate, AML12 (inhibitory percentage of AML12 cell growth)): 20%; Fluorescence polarization, inhibition (TEAD [5]): inhibition
COc1ccc(-c2cc(-c3ccccc3)nc3c2CC(=O)Nc2ccccc2-3)cc1OC [NSC682769] | – | – | – | – | – | – | YAP binding (YAP [6]): directly bind to YAP; Association of YAP with TEAD family members (YAP-TEAD): inhibit its association with all four TEAD family members; YAP expression (YAP [7]): attenuates YAP expression

From patent publication US20260337177A1, “TEAD CORE INHIBITORS FOR CANCER THERAPEUTICS” (University of Florida Research Foundation, Incorporated, priority 2023, published 2026)
